Target: T1, human TRPV1 (Homo sapiens, UniProt Q8NER1)
T1 construct: expressed in transfected cells; host or cells: HEK293-F cells, transient transfection
Test: Acid activation assay, ratiometric calcium imaging
Assay type: cell-based
Conditions: HEK293-F cells expressing human TRPV1, Example 56 at 3 μM; for block of TRPV1-mediated increase in intracellular calcium concentration in response to pH 5.5: acid pH 5.5; for block of TRPV1-mediated increase in intracellular calcium concentration in response to capsaicin: capsaicin 1 μM
Procedure: The differential effects of TRPV1 antagonists on capsaicin- or acid-induced responses were verified by ratiometric calcium imaging. Transiently transfected HEK293-F cells expressing human TRPV1 were incubated with 5 μM Fura-2AM for 30 minutes at 37° C. Intracellular calcium concentration was measured on an imaging system consisting of the X-Cite™ 120 Fluorescence Illumination System (EXFO) and a Digital Camera (C4742-95, Hamamatsu Photonics) connected to an Olympus 1×71 microscope. Through the control of Slide Book 4.2 software, fluorescence was measured during excitation at 340 and 380 nm; the ratio of the fluorescence at both excitation wavelengths (F340/F380) was monitored. D-PBS, pH 7.4 (Invitrogen, catalog no. 14287) was used as the extracellular solution. Acidic buffer was prepared by titrating D-PBS, pH 7.4 with 7 N HCl to pH 5.5. Agonists and antagonists were prepared in the pH 7.4 or 5.5 solutions. Rapid solution switch was achieved by using a ValveLink system.
Over the time 1250-second course, the cells were challenged sequentially with solutions containing Example 56 (3 μM), Example 56 (3 μM) plus capsaicin (1 μM), Example 56 (3 μM) plus acid (pH 5.5), or acid (pH 5.5) alone. The black bars above the traces designate addition and duration of solution applications. Spaces between horizontal bars represent periods in which cells were perfused with D-PBS, pH 7.4 alone. […]

T1 sequence (Q8NER1 whole entry): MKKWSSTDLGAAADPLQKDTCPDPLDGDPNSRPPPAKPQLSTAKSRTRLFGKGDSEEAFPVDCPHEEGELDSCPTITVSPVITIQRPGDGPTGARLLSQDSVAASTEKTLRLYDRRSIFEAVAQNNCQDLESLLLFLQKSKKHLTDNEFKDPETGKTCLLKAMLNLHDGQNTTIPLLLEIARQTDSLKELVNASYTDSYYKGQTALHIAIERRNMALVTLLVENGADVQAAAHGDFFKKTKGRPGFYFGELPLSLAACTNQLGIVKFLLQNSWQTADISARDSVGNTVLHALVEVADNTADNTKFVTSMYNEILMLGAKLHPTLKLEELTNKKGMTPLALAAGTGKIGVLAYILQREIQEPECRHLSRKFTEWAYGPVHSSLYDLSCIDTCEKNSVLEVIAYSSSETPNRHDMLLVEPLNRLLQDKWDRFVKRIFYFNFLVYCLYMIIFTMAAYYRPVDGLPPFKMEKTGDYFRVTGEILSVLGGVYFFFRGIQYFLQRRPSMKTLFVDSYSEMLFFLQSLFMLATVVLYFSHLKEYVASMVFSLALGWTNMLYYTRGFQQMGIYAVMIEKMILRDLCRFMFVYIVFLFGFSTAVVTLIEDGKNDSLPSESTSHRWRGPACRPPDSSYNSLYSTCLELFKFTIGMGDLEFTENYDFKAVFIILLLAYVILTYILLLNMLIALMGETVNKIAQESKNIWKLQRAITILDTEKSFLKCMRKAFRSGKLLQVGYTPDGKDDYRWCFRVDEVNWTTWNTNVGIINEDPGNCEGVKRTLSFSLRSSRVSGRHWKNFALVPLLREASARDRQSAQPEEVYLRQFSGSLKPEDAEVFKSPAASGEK

N-[(4R)-2,2-diethyl-6-fluoro-3,4-dihydro-2H-chromen-4-yl]-N-(3-methylisoquinolin-5-yl)urea [Example 56]
block of TRPV1-mediated increase in intracellular calcium concentration in response to pH 5.5: did not completely block
block of TRPV1-mediated increase in intracellular calcium concentration in response to capsaicin: completely blocked

N-[(4R)-2,2-diethyl-8-fluoro-3,4-dihydro-2H-chromen-4-yl]-N-(3-methylisoquinolin-5-yl)urea [Example 62]
block of TRPV1-mediated increase in intracellular calcium concentration in response to pH 5.5: did not completely block
block of TRPV1-mediated increase in intracellular calcium concentration in response to capsaicin: completely blocked
